This passage reports % of control and % of inhibition results from ChEMBL document CHEMBL5465560, “Selectivity Literature for EUbOPEN Chemogenomic Library” (2024).

Experiment [1] deals with Dual specificity protein kinase CLK3 (Homo sapiens, UniProt P49761). The experiment is described as follows: Selectivity interaction (Kinase panel (Z-LYTE Assay)) EUB0001632a CLK3. Particulars: at 10 µM.
Experiment [2] concerns the target Ribosomal protein S6 kinase alpha-6 (Homo sapiens, UniProt Q9UK32). In words: Selectivity interaction (KinomeScan (DiscoverX)) EUB0000695a RPS6KA6. The note with it: at 100 nM.
For experiment [3], the target named is Ribosomal protein S6 kinase alpha-5 (Homo sapiens) (UniProt O75582). The experiment is described as follows: Selectivity interaction (KinomeScan (DiscoverX)) EUB0000607a RPS6KA5. Particulars: at 10 µM.
Chain of Ribosomal protein S6 kinase alpha-5 (Homo sapiens) (O75582 whole entry, looked up): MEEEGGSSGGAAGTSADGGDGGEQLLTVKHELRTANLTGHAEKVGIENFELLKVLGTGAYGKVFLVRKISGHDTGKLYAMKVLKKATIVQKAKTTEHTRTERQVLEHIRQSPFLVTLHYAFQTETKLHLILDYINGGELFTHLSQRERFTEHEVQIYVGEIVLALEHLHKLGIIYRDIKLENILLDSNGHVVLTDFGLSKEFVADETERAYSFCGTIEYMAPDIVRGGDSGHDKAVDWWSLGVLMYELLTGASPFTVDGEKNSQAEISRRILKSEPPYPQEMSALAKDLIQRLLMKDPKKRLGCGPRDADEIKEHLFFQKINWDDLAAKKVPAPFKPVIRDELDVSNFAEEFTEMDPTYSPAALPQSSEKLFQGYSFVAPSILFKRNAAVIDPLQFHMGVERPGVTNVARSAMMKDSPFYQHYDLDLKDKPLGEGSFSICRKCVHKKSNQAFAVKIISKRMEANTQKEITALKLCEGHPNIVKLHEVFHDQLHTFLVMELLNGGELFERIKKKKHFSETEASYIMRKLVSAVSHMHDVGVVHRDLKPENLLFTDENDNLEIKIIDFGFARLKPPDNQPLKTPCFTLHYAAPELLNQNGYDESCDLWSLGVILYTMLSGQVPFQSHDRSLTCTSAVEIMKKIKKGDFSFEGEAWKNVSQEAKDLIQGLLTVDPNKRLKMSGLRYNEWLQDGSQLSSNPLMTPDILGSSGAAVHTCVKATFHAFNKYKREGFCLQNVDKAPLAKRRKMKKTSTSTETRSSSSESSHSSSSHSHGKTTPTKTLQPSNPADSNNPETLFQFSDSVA
In experiment [4] the target is STE20-like serine/threonine-protein kinase (Homo sapiens, UniProt Q9H2G2). In words: Selectivity interaction (KinomeScan (DiscoverX)) EUB0000607a SLK. Particulars: at 10 µM.
Chain of STE20-like serine/threonine-protein kinase (Q9H2G2 whole entry, looked up): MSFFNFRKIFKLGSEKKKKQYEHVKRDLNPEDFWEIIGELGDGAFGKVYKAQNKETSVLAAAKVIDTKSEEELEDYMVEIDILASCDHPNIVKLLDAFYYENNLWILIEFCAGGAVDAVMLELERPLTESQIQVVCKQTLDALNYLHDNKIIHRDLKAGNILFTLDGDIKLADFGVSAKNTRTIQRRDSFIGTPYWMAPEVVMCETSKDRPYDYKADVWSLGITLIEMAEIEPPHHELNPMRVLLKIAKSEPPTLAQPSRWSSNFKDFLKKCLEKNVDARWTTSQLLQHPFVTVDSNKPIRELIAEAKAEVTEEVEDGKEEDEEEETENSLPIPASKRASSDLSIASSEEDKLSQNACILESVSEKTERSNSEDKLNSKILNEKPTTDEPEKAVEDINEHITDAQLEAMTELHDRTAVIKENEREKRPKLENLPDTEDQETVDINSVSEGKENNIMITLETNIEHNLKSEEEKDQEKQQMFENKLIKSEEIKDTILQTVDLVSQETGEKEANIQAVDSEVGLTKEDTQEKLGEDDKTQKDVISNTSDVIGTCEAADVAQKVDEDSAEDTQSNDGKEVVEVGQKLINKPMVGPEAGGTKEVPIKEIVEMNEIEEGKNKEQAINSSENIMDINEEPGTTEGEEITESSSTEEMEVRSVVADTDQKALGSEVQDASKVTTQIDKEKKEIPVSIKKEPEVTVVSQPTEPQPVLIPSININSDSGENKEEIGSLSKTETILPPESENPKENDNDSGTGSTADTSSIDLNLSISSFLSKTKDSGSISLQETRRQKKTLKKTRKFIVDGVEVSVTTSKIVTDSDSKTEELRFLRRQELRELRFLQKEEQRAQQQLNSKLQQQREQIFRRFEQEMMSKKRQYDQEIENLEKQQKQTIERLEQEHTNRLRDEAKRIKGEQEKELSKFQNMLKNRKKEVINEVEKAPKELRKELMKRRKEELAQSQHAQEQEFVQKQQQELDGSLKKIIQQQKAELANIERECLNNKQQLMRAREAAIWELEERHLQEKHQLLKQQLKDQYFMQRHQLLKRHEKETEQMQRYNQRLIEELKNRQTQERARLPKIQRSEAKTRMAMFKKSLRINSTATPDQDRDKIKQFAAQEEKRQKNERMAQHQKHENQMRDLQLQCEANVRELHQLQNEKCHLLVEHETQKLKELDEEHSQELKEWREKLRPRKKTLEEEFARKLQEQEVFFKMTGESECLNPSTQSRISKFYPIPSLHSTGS
For experiment [5], the target named is T1, Serine/threonine-protein kinase Nek1 (Homo sapiens) (UniProt Q96PY6).
T1 sequence (whole entry): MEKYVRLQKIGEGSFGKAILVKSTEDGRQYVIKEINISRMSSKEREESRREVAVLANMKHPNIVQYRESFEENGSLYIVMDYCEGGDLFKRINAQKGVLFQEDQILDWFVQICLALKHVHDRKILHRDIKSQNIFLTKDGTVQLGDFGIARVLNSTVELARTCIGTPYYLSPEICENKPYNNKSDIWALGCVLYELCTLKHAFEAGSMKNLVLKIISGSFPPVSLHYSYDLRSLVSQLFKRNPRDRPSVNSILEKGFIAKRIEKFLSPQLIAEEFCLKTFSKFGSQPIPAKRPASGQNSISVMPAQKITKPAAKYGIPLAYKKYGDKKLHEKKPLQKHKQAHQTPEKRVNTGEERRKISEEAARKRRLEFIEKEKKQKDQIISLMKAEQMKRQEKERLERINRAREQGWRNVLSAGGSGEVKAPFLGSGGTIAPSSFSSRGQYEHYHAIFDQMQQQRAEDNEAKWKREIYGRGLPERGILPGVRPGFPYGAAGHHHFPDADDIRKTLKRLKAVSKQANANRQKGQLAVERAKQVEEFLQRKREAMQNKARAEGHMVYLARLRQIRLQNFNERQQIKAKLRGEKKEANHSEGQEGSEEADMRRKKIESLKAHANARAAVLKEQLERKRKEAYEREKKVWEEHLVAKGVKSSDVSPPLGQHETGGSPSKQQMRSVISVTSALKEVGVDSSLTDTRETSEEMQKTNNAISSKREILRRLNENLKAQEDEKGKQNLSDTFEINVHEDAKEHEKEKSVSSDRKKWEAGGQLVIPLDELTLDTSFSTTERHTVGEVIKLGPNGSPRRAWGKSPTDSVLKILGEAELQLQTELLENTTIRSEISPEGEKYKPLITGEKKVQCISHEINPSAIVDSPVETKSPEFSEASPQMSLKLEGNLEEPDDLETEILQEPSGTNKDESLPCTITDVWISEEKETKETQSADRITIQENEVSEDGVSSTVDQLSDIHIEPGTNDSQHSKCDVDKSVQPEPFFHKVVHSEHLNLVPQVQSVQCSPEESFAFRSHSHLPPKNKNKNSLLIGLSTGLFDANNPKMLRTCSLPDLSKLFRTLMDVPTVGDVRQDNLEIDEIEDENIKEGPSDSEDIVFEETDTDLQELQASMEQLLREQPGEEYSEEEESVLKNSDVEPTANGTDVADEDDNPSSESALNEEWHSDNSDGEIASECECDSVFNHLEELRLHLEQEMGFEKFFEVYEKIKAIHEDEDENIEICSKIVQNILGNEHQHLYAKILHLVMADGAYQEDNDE
In words: Selectivity interaction (Kinase screening (Nanosyn)) EUB0000604a NEK1.

The target of experiment [6] is Proto-oncogene tyrosine-protein kinase ROS (Homo sapiens) (UniProt P08922). The experiment is described as follows: Selectivity interaction (Kinase screening (Nanosyn)) EUB0000604a ROS1.
In experiment [7] the target is T2, Mitogen-activated protein kinase 13 (Homo sapiens) (UniProt O15264).
T2 sequence (whole entry): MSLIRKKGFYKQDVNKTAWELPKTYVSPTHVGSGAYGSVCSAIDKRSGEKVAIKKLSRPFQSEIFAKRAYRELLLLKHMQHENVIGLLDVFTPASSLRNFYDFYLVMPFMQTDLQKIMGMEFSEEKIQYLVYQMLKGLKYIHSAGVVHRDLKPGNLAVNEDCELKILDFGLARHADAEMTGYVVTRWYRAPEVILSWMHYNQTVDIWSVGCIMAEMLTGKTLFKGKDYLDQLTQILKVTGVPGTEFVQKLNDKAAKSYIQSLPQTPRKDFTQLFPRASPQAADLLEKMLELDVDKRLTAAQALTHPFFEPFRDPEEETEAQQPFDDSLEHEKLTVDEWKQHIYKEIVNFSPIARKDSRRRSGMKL
In words: Selectivity interaction (ActivX KiNativ screen (kinase selectivity in THP-1 cell lysates)) EUB0000639a MAPK13. Format: subcellular. The note with it: lysate.

Experiment [8] deals with eIF-2-alpha kinase GCN2 (Homo sapiens), Q9P2K8 [S808G]. The experiment is described as follows: Selectivity interaction (KinomeScan (DiscoverX)) EUB0000092b EIF2AK4. Particulars: at 10 µM.
Chain of eIF-2-alpha kinase GCN2 (Homo sapiens), Q9P2K8 [S808G] (Q9P2K8 whole entry S808G): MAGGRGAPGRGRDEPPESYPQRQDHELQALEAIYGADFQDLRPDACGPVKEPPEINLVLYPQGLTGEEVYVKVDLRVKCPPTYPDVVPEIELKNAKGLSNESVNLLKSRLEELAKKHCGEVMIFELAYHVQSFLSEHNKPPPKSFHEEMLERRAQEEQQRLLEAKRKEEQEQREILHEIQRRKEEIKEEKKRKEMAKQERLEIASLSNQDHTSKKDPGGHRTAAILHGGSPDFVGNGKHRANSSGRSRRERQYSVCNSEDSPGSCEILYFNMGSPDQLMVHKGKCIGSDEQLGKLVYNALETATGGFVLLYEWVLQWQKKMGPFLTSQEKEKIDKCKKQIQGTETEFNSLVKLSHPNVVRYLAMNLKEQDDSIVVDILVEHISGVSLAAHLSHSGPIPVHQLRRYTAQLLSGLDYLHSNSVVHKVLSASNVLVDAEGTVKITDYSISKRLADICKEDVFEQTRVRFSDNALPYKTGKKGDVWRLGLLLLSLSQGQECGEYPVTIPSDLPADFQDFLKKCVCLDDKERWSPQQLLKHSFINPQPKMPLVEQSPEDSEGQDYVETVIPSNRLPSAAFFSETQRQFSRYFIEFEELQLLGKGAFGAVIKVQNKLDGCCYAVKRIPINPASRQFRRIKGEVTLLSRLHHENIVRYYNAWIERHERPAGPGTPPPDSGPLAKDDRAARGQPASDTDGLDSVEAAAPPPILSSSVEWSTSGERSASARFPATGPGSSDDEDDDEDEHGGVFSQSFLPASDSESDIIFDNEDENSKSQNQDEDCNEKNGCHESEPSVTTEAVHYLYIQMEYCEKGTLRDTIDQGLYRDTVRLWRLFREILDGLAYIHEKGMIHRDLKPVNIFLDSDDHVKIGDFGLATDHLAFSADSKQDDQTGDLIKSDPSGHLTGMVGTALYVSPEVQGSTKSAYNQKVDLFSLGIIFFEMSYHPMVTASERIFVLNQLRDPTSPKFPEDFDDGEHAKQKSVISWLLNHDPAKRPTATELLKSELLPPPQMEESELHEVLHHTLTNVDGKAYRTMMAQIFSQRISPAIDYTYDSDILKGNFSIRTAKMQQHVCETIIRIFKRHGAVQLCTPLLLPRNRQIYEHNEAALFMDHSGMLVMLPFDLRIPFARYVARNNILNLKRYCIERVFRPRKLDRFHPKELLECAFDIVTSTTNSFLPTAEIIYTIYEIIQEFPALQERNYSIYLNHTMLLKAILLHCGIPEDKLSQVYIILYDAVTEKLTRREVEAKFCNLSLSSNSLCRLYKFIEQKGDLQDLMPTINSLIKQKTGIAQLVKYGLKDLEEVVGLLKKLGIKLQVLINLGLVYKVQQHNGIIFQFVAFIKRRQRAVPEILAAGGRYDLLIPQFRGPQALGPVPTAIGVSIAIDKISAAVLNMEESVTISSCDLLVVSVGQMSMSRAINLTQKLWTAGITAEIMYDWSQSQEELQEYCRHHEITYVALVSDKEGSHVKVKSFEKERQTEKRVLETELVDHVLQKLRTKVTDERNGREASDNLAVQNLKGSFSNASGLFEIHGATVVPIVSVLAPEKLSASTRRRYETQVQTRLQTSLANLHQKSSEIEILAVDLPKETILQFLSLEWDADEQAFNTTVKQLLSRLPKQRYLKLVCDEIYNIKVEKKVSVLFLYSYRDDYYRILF
The target of experiment [9] is T3, Inhibitor of nuclear factor kappa-B kinase subunit alpha (Homo sapiens) (UniProt O15111).
T3 sequence (whole entry): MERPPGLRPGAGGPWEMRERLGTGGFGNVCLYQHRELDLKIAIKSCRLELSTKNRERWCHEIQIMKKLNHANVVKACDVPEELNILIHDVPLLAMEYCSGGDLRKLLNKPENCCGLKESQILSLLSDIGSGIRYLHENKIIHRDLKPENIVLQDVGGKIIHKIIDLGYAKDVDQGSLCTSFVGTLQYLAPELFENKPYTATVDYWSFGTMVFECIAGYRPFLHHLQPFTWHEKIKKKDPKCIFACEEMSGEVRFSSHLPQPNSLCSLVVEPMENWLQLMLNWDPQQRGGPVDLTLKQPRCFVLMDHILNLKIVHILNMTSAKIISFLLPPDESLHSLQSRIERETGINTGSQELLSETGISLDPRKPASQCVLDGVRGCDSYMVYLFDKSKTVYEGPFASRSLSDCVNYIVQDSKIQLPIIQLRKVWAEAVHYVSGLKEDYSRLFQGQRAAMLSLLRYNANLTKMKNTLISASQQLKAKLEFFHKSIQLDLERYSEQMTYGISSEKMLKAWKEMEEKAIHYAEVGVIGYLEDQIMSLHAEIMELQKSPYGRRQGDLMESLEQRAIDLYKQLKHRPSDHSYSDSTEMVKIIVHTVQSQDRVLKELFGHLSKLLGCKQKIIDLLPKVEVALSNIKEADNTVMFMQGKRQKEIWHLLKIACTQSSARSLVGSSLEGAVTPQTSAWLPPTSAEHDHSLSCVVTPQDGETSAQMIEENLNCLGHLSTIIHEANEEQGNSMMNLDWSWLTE
In words: Selectivity interaction (Millipore kinase profiler) EUB0000124b CHUK. The note with it: at 10 µM.

Each structure is given as a SMILES string.

Chain of Ribosomal protein S6 kinase alpha-6 (Q9UK32 whole entry): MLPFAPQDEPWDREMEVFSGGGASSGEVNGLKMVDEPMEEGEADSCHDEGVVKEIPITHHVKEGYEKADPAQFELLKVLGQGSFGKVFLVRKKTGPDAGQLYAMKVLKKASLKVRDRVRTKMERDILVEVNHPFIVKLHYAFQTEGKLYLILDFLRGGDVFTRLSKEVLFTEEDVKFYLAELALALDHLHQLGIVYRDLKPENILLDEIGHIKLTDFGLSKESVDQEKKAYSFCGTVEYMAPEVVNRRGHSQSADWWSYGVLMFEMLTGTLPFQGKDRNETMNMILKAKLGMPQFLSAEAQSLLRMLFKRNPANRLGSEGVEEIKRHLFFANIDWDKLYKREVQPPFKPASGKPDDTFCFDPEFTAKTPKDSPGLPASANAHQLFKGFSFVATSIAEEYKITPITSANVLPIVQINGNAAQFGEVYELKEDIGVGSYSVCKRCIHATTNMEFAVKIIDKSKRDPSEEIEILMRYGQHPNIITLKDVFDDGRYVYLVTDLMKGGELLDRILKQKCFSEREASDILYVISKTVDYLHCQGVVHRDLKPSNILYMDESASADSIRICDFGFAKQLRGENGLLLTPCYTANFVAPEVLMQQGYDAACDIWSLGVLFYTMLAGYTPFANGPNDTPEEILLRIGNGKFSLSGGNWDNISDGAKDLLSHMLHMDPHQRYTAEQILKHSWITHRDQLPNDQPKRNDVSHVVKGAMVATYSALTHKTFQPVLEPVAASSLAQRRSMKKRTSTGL
Chain of Dual specificity protein kinase CLK3 (P49761 whole entry, looked up): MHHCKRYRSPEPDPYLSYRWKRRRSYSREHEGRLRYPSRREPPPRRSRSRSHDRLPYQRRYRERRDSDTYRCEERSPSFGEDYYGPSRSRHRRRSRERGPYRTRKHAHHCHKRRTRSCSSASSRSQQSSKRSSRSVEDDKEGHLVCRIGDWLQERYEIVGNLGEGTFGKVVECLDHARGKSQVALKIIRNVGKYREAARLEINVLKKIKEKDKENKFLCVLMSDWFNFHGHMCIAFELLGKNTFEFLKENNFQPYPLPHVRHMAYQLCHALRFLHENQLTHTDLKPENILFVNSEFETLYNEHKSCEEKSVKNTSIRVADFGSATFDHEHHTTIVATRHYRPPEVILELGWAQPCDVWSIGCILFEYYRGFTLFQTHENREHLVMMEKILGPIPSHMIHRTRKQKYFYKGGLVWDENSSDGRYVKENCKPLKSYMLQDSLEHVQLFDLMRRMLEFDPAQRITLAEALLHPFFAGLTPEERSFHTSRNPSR

As to `Cn1cc(-n2cnc3c(NCc4nc5cc(Cl)c(Cl)cc5[nH]4)nc(N4CCOCC4)nc32)cn1`, the % of control in experiment [1] was 8.16%.

`Cc1cc(F)c(C(=O)Nc2cccc(-c3nncn3C(C)C)n2)cc1-n1cnc(C2CC2)c1` displayed a % of control in [2] of 84%.

In the case of `CNC(=O)Nc1ccc(-c2nc(N3CC4CCC(C3)O4)c3cnn(C4CCC5(CC4)OCCO5)c3n2)cc1`, the % of control came out at 86% in experiment [3] and 100% in [4].

With `Cc1cnc(Nc2ccc(F)cc2Cl)nc1-c1c[nH]c(C(=O)N[C@H](CO)c2cccc(Cl)c2)c1`, the % of inhibition in [5] is 6%; in [6], 3%.

For the compound `CC[C@@H]1[C@H](F)C(=O)N[C@@H]1COc1nccc2cc(C(N)=O)c(OC)cc12` [ZIMLOVISERTIB], the % of inhibition in experiment [7] (at 0.01 µM) was -4.4%; in [7] (at 0.04 µM) it was 6%; in [7] (at 0.2 µM) it was -3.6%; in experiment [7] (at 1 µM), 7.4%; in [7] (at 5 µM), 20.3%.

In the case of `CCC(=O)N1CCN(c2ccc(-n3c(=O)ccc4cnc5ccc(-c6cnc7ccccc7c6)cc5c43)cc2C(F)(F)F)CC1`, in [8], the % of control came out at 99%.

With `CC(=O)Nc1cccc(-n2c(=O)n(C3CC3)c(=O)c3c(Nc4ccc(I)cc4F)n(C)c(=O)c(C)c32)c1`, in [9], the % of control came to 123%.
